Assay results: paper PMC12500448 (Frontiers in Pharmacology, 2025)
Where two headings read alike, the source gives them in different places. Each block holds one molecule with its values, some of them ahead of it.

Legend:
[1] = parameters: method as in Chen et al., 2024; conditions: in vivo; ref Chen et al., 2024; cited from earlier work
[2] = tested on: rat liver microsomes (RLM); experiment: Screening of 10 drugs for inhibition of quetiapine metabolism (formation of N-desalkylquetiapine) in RLM; assay type: in vitro ADME; conditions: RLM 0.3 mg/mL, drug 100 μM, quetiapine at Km
Procedure: (§1) 200 μL enzymatic kinetic incubation system was adjusted according to the measurement purpose with the corresponding incubation conditions. […] The mixture without NADPH was pre-incubated at 37 °C in a water bath for 5 min, then 10 μL NADPH (20 mM) was added to initiate the reaction. Following a further 30 min incubation, the reaction was terminated by freezing at −80 °C. Prior to sample thawing, 400 μL acetonitrile was added to precipitate proteins, and 20 μL lurasidone (200 ng/mL) was added as IS. After complete dissolution of the samples, they were vortexed for 2 min and centrifuged for 10 min (13,000 rpm), then the supernatants were taken for UPLC-MS/MS detection and analysis.

[3] = tested on: human liver microsomes (HLM); conditions: 1-200 μM quetiapine
Procedure: as §1
(§2) The Michaelis-Menten curves, IC50 curves, Lineweaver–Burk plots, and the mean plasma concentration–time curves were generated using GraphPad Prism software (version 9.5; GraphPad Software Inc., San Diego, CA). The pharmacokinetic parameters were derived using the non-compartmental model analysis with Drug and Statistics software (version 3.0 software, Mathematical Pharmacology Professional Committee of China, Shanghai, China).

[4] = tested on: rat liver microsomes (RLM); conditions: 1-200 μM quetiapine
Procedure: as §1, §2

[5] = Pharmacokinetics of quetiapine and N-desalkylquetiapine in rats with or without nicardipine; assay type: in vivo, Sprague-Dawley rats; conditions: rat; for CL/F: read-out: CLz/F (converted)
Procedure: Due to the similarity between their hepatic enzyme system and humans, Sprague-Dawley male rats are widely used in pharmacokinetics ([Martignoni et al., 2006]; [Riccardi et al., 2018]). This pharmacokinetic study was conducted on eight healthy male Sprague-Dawley rats provided by the Animal Experiment Center of the First Affiliated Hospital of Wenzhou Medical University (Zhejiang, China). Animals were housed in an environment with a temperature of 20 °C–26 °C, relative humidity of 55% ± 15%, and a light-dark cycle of 12 h/day, in strict following the guidelines for the care and use of laboratory animals by the National Research Council. The research protocol was adhered to the ARRIVE guidelines and was approved by the Experimental Animal Ethics Committee of the First Affiliated Hospital of Wenzhou Medical University (WYYY-IACUC-AEC-2023–064). Before the formal experiment, in order to mitigate the influence of food on drug absorption, Sprague-Dawley rats were fasted for 12 h and then randomly divided into two groups. Nicardipine and quetiapine are dissolved using corn oil. […] Following centrifugation at 8,000 rpm for 10 min, 100 μL of plasma supernatant was precisely taken into a new clean and dry 1.5 mL EP tube, where 300 μL acetonitrile and 10 μL IS working solution (200 ng/mL) were added, and after vortexing and centrifugation, the supernatants were taken for injection and analysis.

[6] = treatment of refractory depression; ref Reif et al., 2023; cited from earlier work
[7] = male, Sprague-Dawley, plasma, po, 15 mg/kg, quetiapine in plasma, quetiapine 15 mg/kg + nicardipine 4 mg/kg by gavage 30 min before
[8] = male, Sprague-Dawley, plasma, po, 15 mg/kg, quetiapine in plasma, quetiapine 15 mg/kg by gavage alone
[9] = metabolite N-desalkylquetiapine in plasma, quetiapine 15 mg/kg + nicardipine 4 mg/kg by gavage
[10] = metabolite N-desalkylquetiapine in plasma, quetiapine 15 mg/kg by gavage alone

Compound: COC(=O)C1=C(C)NC(C)=C(C(=O)OCCN(C)Cc2ccccc2)C1c1cccc([N+](=O)[O-])c1 (stereo not shown) [nicardipine]
increase of AUC0−∞ of almonertinib [1]: 0.87 fold | increase of AUC(0-t) of almonertinib [1]: 0.95 fold

Compound: O=c1c(O)c(-c2ccc(O)c(O)c2)oc2cc(O)cc(O)c12 [quercetin]
inhibition rate against quetiapine metabolism [2]: 61.47%

Km [3]: 50.8 µM | Km [4]: 48.8 µM | AUC(0-inf) [5, 7]: 108 ± 31.4 ng·h/mL | half-life [5, 7]: 5.16 ± 2.82 h | AUC(0-t) ([5]; male, Sprague-Dawley, plasma, po, 15 mg/kg, quetiapine in plasma, quetiapine 15 mg/kg + nicardipine 4 mg/kg by gavage 30 min before, read-out: AUC(0-t)): 106 ± 30.3 ng·h/mL | CL/F [5, 7]: 2460 mL/min/kg | Cmax ([5]; male, Sprague-Dawley, plasma, po, 15 mg/kg, quetiapine in plasma, quetiapine 15 mg/kg + nicardipine 4 mg/kg by gavage 30 min before, read-out: Cmax): 28.8 ± 10.7 ng/mL | Tmax ([5]; male, Sprague-Dawley, plasma, po, 15 mg/kg, quetiapine in plasma, quetiapine 15 mg/kg + nicardipine 4 mg/kg by gavage 30 min before, read-out: Tmax): 0.88 ± 0.52 h | AUC(0-inf) [5, 8]: 38.1 ± 6.91 ng·h/mL | half-life [5, 8]: 5.12 ± 3.56 h | AUC(0-t) ([5]; male, Sprague-Dawley, plasma, po, 15 mg/kg, quetiapine in plasma, quetiapine 15 mg/kg by gavage alone, read-out: AUC(0-t)): 36 ± 5.48 ng·h/mL | CL/F [5, 8]: 6730 mL/min/kg | Cmax ([5]; male, Sprague-Dawley, plasma, po, 15 mg/kg, quetiapine in plasma, quetiapine 15 mg/kg by gavage alone, read-out: Cmax): 12 ± 2.28 ng/mL | Tmax ([5]; male, Sprague-Dawley, plasma, po, 15 mg/kg, quetiapine in plasma, quetiapine 15 mg/kg by gavage alone, read-out: Tmax): 0.94 ± 0.52 h
Compound: OCCOCCN1CCN(C2=Nc3ccccc3Sc3ccccc32)CC1 [quetiapine]
incidence of adverse reactions [6]: 78.0% | incidence of serious adverse reactions [6]: 5.7%

AUC0−∞ [5, 9]: 80.29 ± 27.62 ng·h/mL | AUC(0-t) [5, 9]: 70.19 ± 22.75 ng·h/mL | CLz/F [5, 9]: 3499.8 ± 1541 mL/min/kg | Cmax [5, 9]: 14.98 ± 11.59 ng/mL | Tmax [5, 9]: 0.69 ± 0.55 h | t1/2 [5, 9]: 8.54 ± 5.49 h | AUC0−∞ [5, 10]: 161.47 ± 62.64 ng·h/mL | AUC(0-t) [5, 10]: 160.62 ± 63.16 ng·h/mL | CLz/F [5, 10]: 1692 ± 501.3 mL/min/kg | Cmax [5, 10]: 50.66 ± 32.77 ng/mL | Tmax [5, 10]: 0.31 ± 0.13 h | t1/2 [5, 10]: 3.19 ± 1.76 h
Compound: c1ccc2c(c1)N=C(N1CCNCC1)c1ccccc1S2 [N-desalkylquetiapine]
